Measured values reported in patent publication EP3755703B1, “N-(PHENYL)-2-(PHENYL)PYRIMIDINE-4-CARBOXAMIDE DERIVATIVES AND RELATED COMPOUNDS AS HPK1 INHIBITORS FOR TREATING CANCER” (Incyte Corporation, priority 2018, dated 2019).

Molecular target: T1, HPK1 (Homo sapiens, UniProt Q92918)
T1 construct: purchased SignalChem M23-11G
T1 sequence (Q92918 1-346 limits assumed): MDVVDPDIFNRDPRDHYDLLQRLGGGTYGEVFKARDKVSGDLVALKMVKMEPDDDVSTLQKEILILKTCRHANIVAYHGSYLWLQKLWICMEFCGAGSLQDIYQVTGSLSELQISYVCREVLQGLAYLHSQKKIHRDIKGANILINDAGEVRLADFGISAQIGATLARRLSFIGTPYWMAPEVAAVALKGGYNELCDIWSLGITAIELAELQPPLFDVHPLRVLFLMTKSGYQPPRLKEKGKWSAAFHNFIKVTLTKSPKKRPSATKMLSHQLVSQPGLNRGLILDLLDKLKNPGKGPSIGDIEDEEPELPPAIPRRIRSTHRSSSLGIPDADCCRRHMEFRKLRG
Test: HPK1 Kinase Binding Assay
Settings: LanthaScreen tracer 222, one hour incubation at 25 °C

SMILES	Ki
COc1cccc(F)c1-c1nccc(C(=O)Nc2ccc(-c3c(C)nn(C)c3C)cc2[C@H]2CC[C@@H](N)CC2)n1 [Example 84, N-(2-((cis)-4-Aminocyclohexyl)-4-(1,3,5-trimethyl-1H-pyrazol-4-yl)phenyl)-2-(2-fluoro-6-methoxyphenyl)pyrimidine-4-carboxamide]	< 100 nM
COc1cccc(F)c1-c1nccc(C(=O)Nc2ccc(S(C)(=O)=O)cc2N2C[C@@H](N)C[C@H]2CO)n1 [Example 85, N-(2-((2S,4S)-4-Amino-2-(hydroxymethyl)pyrrolidin-1-yl)-4-(methylsulfonyl)phenyl)-2-(2-fluoro-6-methoxyphenyl)pyrimidine-4-carboxamide]	< 100 nM
COc1cccc(F)c1-c1nccc(C(=O)Nc2ccccc2N2C[C@@H](N)C[C@H]2CO)n1 [Example 86, N-(2-((2S,4S)-4-Amino-2-(hydroxymethyl)pyrrolidin-1-yl)phenyl)-2-(2-fluoro-6-methoxyphenyl)pyrimidine-4-carboxamide]	< 100 nM
COc1cccc(F)c1-c1nccc(C(=O)Nc2cc(C)ccc2N2C[C@@H](N)C[C@H]2CO)n1 [Example 87, N-(2-((2S,4S)-4-Amino-2-(hydroxymethyl)pyrrolidin-1-yl)-5-methylphenyl)-2-(2-fluoro-6-methoxyphenyl)pyrimidine-4-carboxamide]	< 100 nM
COc1cccc(F)c1-c1nccc(C(=O)Nc2cc(F)ccc2N2C[C@@H](N(C)C)C[C@H]2CO)n1 [Example 88, N-(2-((2S,4S)-4-(Dimethylamino)-2-(hydroxymethyl)pyrrolidin-1-yl)-5-fluorophenyl)-2-(2-fluoro-6-methoxyphenyl)pyrimidine-4-carboxamide]	< 100 nM
COc1cccc(F)c1-c1nccc(C(=O)Nc2cc(F)ccc2N2C[C@@H](NC(C)C)C[C@H]2CO)n1 [Example 89, N-(5-Fluoro-2-((2S,4S)-2-(hydroxymethyl)-4-(isopropylamino)pyrrolidin-1-yl)phenyl)-2-(2-fluoro-6-methoxyphenyl)pyrimidine-4-carboxamide]	< 100 nM
COc1cccc(F)c1-c1nccc(C(=O)Nc2ccc(C3CCOCC3)cc2N2C[C@@H](N)C[C@H]2CO)n1 [Example 90, N-(2-((2S,4S)-4-Amino-2-(hydroxymethyl)pyrrolidin-1-yl)-4-(tetrahydro-2H-pyran-4-yl)phenyl)-2-(2-fluoro-6-methoxyphenyl)pyrimidine-4-carboxamide]	< 100 nM
COc1cccc(F)c1-c1nccc(C(=O)Nc2ccc(Cl)cc2N2C[C@@H](N)C[C@H]2CO)n1 [Example 91, N-(2-((2S,4S)-4-Amino-2-(hydroxymethyl)pyrrolidin-1-yl)-4-chlorophenyl)-2-(2-fluoro-6-methoxyphenyl)pyrimidine-4-carboxamide]	< 100 nM
COc1cccc(F)c1-c1nccc(C(=O)Nc2ccc(F)cc2N2C[C@@H](N)C[C@H]2CO)n1 [Example 92, N-(2-((2S,4S)-4-Amino-2-(hydroxymethyl)pyrrolidin-1-yl)-4-fluorophenyl)-2-(2-fluoro-6-methoxyphenyl)pyrimidine-4-carboxamide]	< 100 nM
N#Cc1cnc(N2CCCC2)cc1-c1ccc(NC(=O)c2ccnc(-c3c(F)cccc3F)n2)c(N2C[C@@H](N)C[C@H]2CO)c1 [Example 93, N-(2-((2S,4S)-4-Amino-2-(hydroxymethyl)pyrrolidin-1-yl)-4-(5-cyano-2-(pyrrolidin-1-yl)pyridin-4-yl)phenyl)-2-(2,6-difluorophenyl)pyrimidine-4-carboxamide]	< 100 nM
N#CC1(c2ccc(NC(=O)c3ccnc(-c4c(F)cccc4F)n3)c(N3C[C@@H](N)C[C@H]3CO)c2)CC1 [Example 94, N-(2-((2S,4S)-4-Amino-2-(hydroxymethyl)pyrrolidin-1-yl)-4-(1-cyanocyclopropyl)phenyl)-2-(2,6-difluorophenyl)pyrimidine-4-carboxamide]	< 100 nM
N#Cc1ccncc1-c1ccc(NC(=O)c2ccnc(-c3c(F)cccc3OC(F)F)n2)c(N2C[C@@H](N)C[C@H]2CO)c1 [Example 95, N-(2-((2S,4S)-4-Amino-2-(hydroxymethyl)pyrrolidin-1-yl)-4-(4-cyanopyridin-3-yl)phenyl)-2-(2-(difluoromethoxy)-6-fluorophenyl)pyrimidine-4-carboxamide]	< 100 nM
N#Cc1ccncc1-c1ccc(NC(=O)c2ccnc(-c3c(F)cccc3C3CC3)n2)c(N2C[C@@H](N)C[C@H]2CO)c1 [Example 97, N-(2-((2S,4S)-4-Amino-2-(hydroxymethyl)pyrrolidin-1-yl)-4-(4-cyanopyridin-3-yl)phenyl)-2-(2-cyclopropyl-6-fluorophenyl)pyrimidine-4-carboxamide]	< 100 nM
CCOc1cccc(F)c1-c1nccc(C(=O)Nc2ccc(-c3cnccc3C#N)cc2N2C[C@@H](N)C[C@H]2CO)n1 [Example 98, N-(2-((2S,4S)-4-Amino-2-(hydroxymethyl)pyrrolidin-1-yl)-4-(4-cyanopyridin-3-yl)phenyl)-2-(2-ethoxy-6-fluorophenyl)pyrimidine-4-carboxamide]	< 100 nM
COc1cccc(F)c1-c1nccc(C(=O)Nc2ccc(-c3cnccc3C#N)cc2N2C[C@]3(CO)C[C@H]2CN3C)n1 [Example 99, N-(4-(4-Cyanopyridin-3-yl)-2-((1S,4S)-4-(hydroxymethyl)-5-methyl-2,5-diazabicyclo [2.2.1]heptan-2-yl)phenyl)-2-(2-fluoro-6-methoxyphenyl)pyrimidine-4-carboxamide]	< 100 nM
COc1cccc(F)c1-c1nccc(C(=O)Nc2ccc(-c3cnccc3C#N)cc2N2CCO[C@H](CO)C2)n1 [Example 100, (S)-N-(4-(4-Cyanopyridin-3-yl)-2-(2-(hydroxymethyl)morpholino)phenyl)-2-(2-fluoro-6-methoxyphenyl)pyrimidine-4-carboxamide]	< 100 nM
COc1cccc(F)c1-c1nccc(C(=O)Nc2ccc(-c3cnccc3C#N)cc2N2CCO[C@@H](CN(C)C)C2)n1 [Example 101, (S)-N-(4-(4-Cyanopyridin-3-yl)-2-(2-((dimethylamino)methyl)morpholino)phenyl)-2-(2-fluoro-6-methoxyphenyl)pyrimidine-4-carboxamide]	< 100 nM
COc1cccc(F)c1-c1nccc(C(=O)Nc2ccc(-c3cnccc3C#N)cc2N2CCO[C@H](CC#N)C2)n1 [Example 102, (R)-N-(2-(2-(Cyanomethyl)morpholino)-4-(4-cyanopyridin-3-yl)phenyl)-2-(2-fluoro-6-methoxyphenyl)pyrimidine-4-carboxamide]	< 100 nM
COc1cccc(F)c1-c1nccc(C(=O)Nc2ccc(-c3cnccc3C#N)cc2N2CCN3C(=O)OC[C@H]3C2)n1 [Example 103, (R)-N-(4-(4-Cyanopyridin-3-yl)-2-(3-oxotetrahydro-3H-oxazolo[3,4-a]pyrazin-7(1H)-yl)phenyl)-2-(2-fluoro-6-methoxyphenyl)pyrimidine-4-carboxamide]	< 100 nM
COc1cccc(F)c1-c1nccc(C(=O)Nc2cc(F)ccc2N2CCN[C@H](CO)C2)n1 [Example 104, (S)-N-(5-Fluoro-2-(3-(hydroxymethyl)piperazin-1-yl)phenyl)-2-(2-fluoro-6-methoxyphenyl)pyrimidine-4-carboxamide]	< 100 nM
COCC1CN(c2cc(-c3cnccc3C#N)ccc2NC(=O)c2ccnc(-c3c(F)cccc3OC)n2)C1 [Example 105, N-(4-(4-Cyanopyridin-3-yl)-2-(3-(methoxymethyl)azetidin-1-yl)phenyl)-2-(2-fluoro-6-methoxyphenyl)pyrimidine-4-carboxamide]	< 100 nM
COc1cccc(F)c1-c1nccc(C(=O)Nc2ccc(-c3cnccc3C#N)cc2N2CC[C@H]2CO)n1 [Example 106, (S)-N-(4-(4-Cyanopyridin-3-yl)-2-(2-(hydroxymethyl)azetidin-1-yl)phenyl)-2-(2-fluoro-6-methoxyphenyl)pyrimidine-4-carboxamide]	< 100 nM
COc1cccc(F)c1-c1nccc(C(=O)Nc2ccc(-c3cnccc3C#N)cc2N2CC[C@@H]2CN(C)C)n1 [Example 107, (R)-N-(4-(4-Cyanopyridin-3-yl)-2-(2-((dimethylamino)methyl)azetidin-1-yl)phenyl)-2-(2-fluoro-6-methoxyphenyl)pyrimidine-4-carboxamide]	< 100 nM
COc1cccc(F)c1-c1nccc(C(=O)Nc2ccc(-c3cnccc3C#N)cc2N2CCN(C)CC2)n1 [Example 108, N-(4-(4-Cyanopyridin-3-yl)-2-(4-methylpiperazin-1-yl)phenyl)-2-(2-fluoro-6-methoxyphenyl)pyrimidine-4-carboxamide]	< 100 nM
COc1cccc(F)c1-c1nccc(C(=O)Nc2ccc(-c3cnccc3C#N)cc2N2CCN(CCO)CC2)n1 [Example 109, N-(4-(4-Cyanopyridin-3-yl)-2-(4-(2-hydroxyethyl)piperazin-1-yl)phenyl)-2-(2-fluoro-6-methoxyphenyl)pyrimidine-4-carboxamide]	< 100 nM
COc1cccc(F)c1-c1nccc(C(=O)Nc2cc(F)c(C(C)C)cc2N2CCN[C@H](CO)C2)n1 [Example 110, (S)-N-(5-Fluoro-2-(3-(hydroxymethyl)piperazin-1-yl)-4-isopropylphenyl)-2-(2-fluoro-6-methoxyphenyl)pyrimidine-4-carboxamide]	< 100 nM
